Assay results taken from patent publication US7902253B2, “Isoflavone derivatives of tectorigenin, the preparation thereof and the antiviral medicine containing the same as an effective constituent” (priority 2003, dated 2011).
Converted amounts (≈) assume the structure as drawn. “And” between values parts separate entries of the source, which are not always exact repeats. Identical values can stand only once. Like-named read-outs stand apart in the source and are kept apart here.

What was measured:
VZV = assay type: cell-based
HSV-1 = assay type: cell-based
Hep-2 cells = assay: cell toxicity test; conditions: Hep-2, all concentrations tested
Z-HL16C cells = assay: cell toxicity test; conditions: all concentrations tested
[1] = system: influenza virus type A1 (Flu•V A1); assay type: cell-based
adenovirus type 7 (ADV7) = assay type: cell-based
[2] = system: respiratory syncytial virus (RSV); assay type: cell-based
adenovirus type 3 (ADV3) = assay type: cell-based
[3] = system: Coxsackie virus group B (CoxBV); assay type: cell-based
[4] = system: influenza virus type A3 (Flu•V A3); assay type: cell-based
[5] = solubility test in water (Chinese Pharmacopeia method); conditions: 25° C.±2° C., shaken every five minutes for 30 minutes
[6] = clarity of injection after adding glucose; assay type: physicochemical
Vero-E6 cell = assay: toxicity to Vero-E6 cell (CPE, REED-MUENCH); conditions: five days, CPE index
[7] = solubility in water stated in description and preparation examples; assay type: physicochemical
coronavirus BJ01 strain = assay: organism not typed; assay type: cell-based, coronavirus (SARS); conditions: for IC50: Vero C1008, 120 h
[8] = product of the preparation example (salt as made), read-out: solubility in water

SMILES | cell pathologic change degree (VZV) | cell pathologic change degree (HSV-1) | cell pathologic change degree [1] | cell pathologic change degree (adenovirus type 7 (ADV7)) | cell pathologic change degree [2] | cell pathologic change degree (adenovirus type 3 (ADV3)) | cell pathologic change degree [3] | cell pathologic change degree [4] | Solute: water [5] [mg/mL] | TD50 (median toxic concentration) (Vero-E6 cell) [mg/mL] | IC50 (coronavirus BJ01 strain) [µg/mL] | solubility [7, 8] [µg/mL] | other results
C=C1CC[C@@H]2[C@](C)(COC(=O)CCC(=O)[O-])[C@H](OC(=O)CCC(=O)[O-])CC[C@@]2(C)[C@@H]1/C=C/C1=CCOC1=O.[K+].[Na+] [Chuanhuning, Potassium Sodium Dehydroandroandrographolide Succinate, reference compound] | 1+ and 2+ and 3+ | 1+ and 2+ and 3+ | 2+ and 3+ | 2+ and 3+ | 2+ and 3+ | 2+ and 3+ | 2+ and 3+ | 2+ and 3+ | – | – | – | – | toxic reaction to cells (in words) (Hep-2 cells): no any toxic reaction; toxic reaction to cells (in words) (Z-HL16C cells): no any toxic reaction; effect on cytopathogenesis (in words) [1]: inhibiting effect; effect on cytopathogenesis (in words) (adenovirus type 7 (ADV7)): inhibiting effect; effect on cytopathogenesis (in words) [2]: inhibiting effect; effect on cytopathogenesis (in words) (adenovirus type 3 (ADV3)): inhibiting effect; effect on cytopathogenesis (in words) [3]: inhibiting effect; effect on cytopathogenesis (in words) [4]: inhibiting effect
COc1c(O)cc2occ(-c3ccc(O)cc3)c(=O)c2c1O [Compound (I), 5,7,4′-trihydroxy-6-methoxyl isoflavone, reference compound] | – | – | – | – | – | – | – | – | 0.1 | – | – | – | –
COc1c(O)cc2occ(-c3ccc(O)c(S(=O)(=O)[O-])c3)c(=O)c2c1O.[Na+] [Compound (IV), tectorigenin sodium sulfonate] | – | – | – | – | – | – | – | – | 67 | 4.34 | 97.6 | – | clarity of the injection ([6]; 2-15% glucose added, room temperature and low temperature (0° C.-5° C.)): kept clarified; clarity of the injection ([6]; 4% glucose added, room and low (0° C.˜5° C.) temperature): kept clear; solubility ([7]; 60 °C, after heating to 60˜100° C., read-out: water-solubility): 50000 to 60000 µg/mL; solubility ([7]; room temperature, read-out: water-solubility): 20000 µg/mL
COc1c(O)c(CN2CCCCC2)c2occ(-c3ccc(O)cc3)c(=O)c2c1O [Compound (IX)] | 1+ and 2+ and 3+ | 2+ | 2+ | 2+ and 3+ | 2+ | 1+ and 3+ | 1+ and 2+ and 3+ | 1+ and 2+ and 3+ | 8 | 2.89 | 125 (≈ 315 µM) | < 1000 | –
COc1c(O)cc2occ(-c3ccc(O)c(N)c3)c(=O)c2c1O [Compound (VI)] | 2+ and 3+ | 1+ and 2+ and 3+ | 2+ | 2+ and 3+ | 2+ and 3+ | 1+ and 2+ and 3+ | 2+ | 1+ and 2+ and 3+ | 8 | 3.85 | 120 (≈ 381 µM) | > 1000 | –
COc1c(O)cc2occ(-c3ccc(OCC(=O)[O-])cc3)c(=O)c2c1O.[Na+] [Compound (VII)] | 1+ and 2+ | 1+ | 2+ | 2+ and 3+ | 2+ and 3+ | 1+ and 2+ | 1+ and 2+ and 3+ | 1+ and 2+ and 3+ | 15 | 4.20 | 102 | > 2000 | –
COc1c(O)cc2occ(-c3ccc(OCCN(C)C)cc3)c(=O)c2c1O [Compound (VIII)] | 2+ | 1+ and 2+ | 2+ | 2+ and 3+ | 2+ and 3+ | 1+ and 2+ and 3+ | 1+ and 2+ and 3+ | 1+ and 2+ and 3+ | 10 | 3.45 | 112 (≈ 302 µM) | > 2000 | –
COc1c(O)c(CN(C)C)c2occ(-c3ccc(O)cc3)c(=O)c2c1O [Compound (X)] | 1+ and 2+ | 1+ and 2+ and 3+ | 2+ | 2+ and 3+ | 2+ and 3+ | 1+ and 2+ and 3+ | 1+ and 3+ | 1+ and 2+ and 3+ | 9 | 3.95 | 119 (≈ 332 µM) | > 2000 | –
NC(=O)c1ncn([C@@H]2O[C@H](CO)[C@@H](O)[C@H]2O)n1 [Ribavirin, reference compound] | – | 1+ and 2+ and 3+ | 1+ and 3+ | 2+ and 3+ | 2+ and 3+ | 1+ and 2+ and 3+ | 2+ and 3+ | 1+ and 3+ | – | – | – | – | Pathologic change pore/cell pore (coronavirus BJ01 strain): 2/4 and 3/4 and 4/4 and 0/4 and 1/4
